Literature values as cited in publication PMC8513935.

What was measured:
[1] = log P octanol/water from commercial databases, averaged (the ESI); details: Octanol (wet), 25 C
[2] = derived by the authors as gas->solvent minus gas->water (a hypothetical dry solvent; the ESI), not a two-phase measurement
[3] = experimental, compiled by the authors from the literature (the ESI cites the sources)

log K of transfer, water to solvent [1] [log10 K]	log K of transfer, water to solvent ([2]; CCl4, 25 C) [log10 K]	log K of transfer, water to solvent ([2]; Hexadecane, 25 C) [log10 K]	log K of transfer, gas to solvent ([3]; CCl4, 25 C) [log10 K]	log K of transfer, gas to solvent ([3]; Hexadecane, 25 C) [log10 K]	log K of transfer, gas to solvent ([3]; Water, 25 C) [log10 K]	log K of transfer, water to solvent ([2]; Chloroform, 25 C) [log10 K]	log K of transfer, water to solvent ([2]; Cyclohexane, 25 C) [log10 K]	log K of transfer, gas to solvent ([3]; Chloroform, 25 C) [log10 K]	log K of transfer, gas to solvent ([3]; Cyclohexane, 25 C) [log10 K]	SMILES	log K of transfer, water to solvent ([2]; Octan-1-ol(dry), 25 C) [log10 K]	log K of transfer, gas to solvent ([3]; Octan-1-ol, 25 C) [log10 K]	log K of transfer, water to solvent ([2]; 1,2-Dichloroethane, 25 C) [log10 K]	log K of transfer, water to solvent ([2]; Benzene, 25 C) [log10 K]	log K of transfer, water to solvent ([2]; Chlorobenzene, 25 C) [log10 K]	log K of transfer, water to solvent ([2]; Hexane, 25 C) [log10 K]	log K of transfer, water to solvent ([2]; Toluene, 25 C) [log10 K]	log K of transfer, gas to solvent ([3]; 1,2-Dichloroethane, 25 C) [log10 K]	log K of transfer, gas to solvent ([3]; Benzene, 25 C) [log10 K]	log K of transfer, gas to solvent ([3]; Chlorobenzene, 25 C) [log10 K]	other results
2.67	3.34	3.19	2.38	2.23	-0.96	–	–	–	–	CC=C(C)C	–	–	–	–	–	–	–	–	–	–	log K of transfer, water to solvent ([2]; 2-Methylpropan-2-ol, 25 C): 3.32 log10 K; log K of transfer, water to solvent ([2]; Cyclohexanone, 25 C): 3.22 log10 K; log K of transfer, gas to solvent ([3]; 2-Methylpropan-2-ol, 25 C): 2.36 log10 K; log K of transfer, gas to solvent ([3]; Cyclohexanone, 25 C): 2.26 log10 K
0.795	–	0.707	–	3.02	2.31	1.97	0.92	4.28	3.23	C1CCOCC1	0.91	3.22	–	–	–	–	–	–	–	–	–
2.62	1.57	1.02	4.66	4.11	3.09	2.41	1.09	5.5	4.18	CCCCCCCO	–	–	1.89	1.93	1.86	1.01	1.86	4.98	5.02	4.95	log K of transfer, water to solvent ([2]; Butyronitrile, 25 C): 2.24 log10 K; log K of transfer, water to solvent ([2]; Heptan-1-ol, 25 C): 2.71 log10 K; log K of transfer, water to solvent ([2]; Hexan-1-ol, 25 C): 2.83 log10 K; log K of transfer, water to solvent ([2]; Methanol, 25 C): 2.48 log10 K; log K of transfer, gas to solvent ([3]; Butyronitrile, 25 C): 5.33 log10 K; log K of transfer, gas to solvent ([3]; Heptan-1-ol, 25 C): 5.8 log10 K; log K of transfer, gas to solvent ([3]; Hexan-1-ol, 25 C): 5.92 log10 K; log K of transfer, gas to solvent ([3]; Hexane, 25 C): 4.1 log10 K; log K of transfer, gas to solvent ([3]; Methanol, 25 C): 5.57 log10 K; log K of transfer, gas to solvent ([3]; Toluene, 25 C): 4.95 log10 K

SMILES	log K of transfer, water to solvent [1] [log10 K]	log K of transfer, water to solvent ([2]; CCl4, 25 C) [log10 K]	log K of transfer, water to solvent ([2]; Hexadecane, 25 C) [log10 K]	log K of transfer, gas to solvent ([3]; CCl4, 25 C) [log10 K]	log K of transfer, gas to solvent ([3]; Hexadecane, 25 C) [log10 K]	log K of transfer, gas to solvent ([3]; Water, 25 C) [log10 K]	log K of transfer, water to solvent ([2]; Chloroform, 25 C) [log10 K]	log K of transfer, water to solvent ([2]; Cyclohexane, 25 C) [log10 K]	log K of transfer, gas to solvent ([3]; Chloroform, 25 C) [log10 K]	log K of transfer, gas to solvent ([3]; Cyclohexane, 25 C) [log10 K]	log K of transfer, water to solvent ([2]; Octan-1-ol(dry), 25 C) [log10 K]	log K of transfer, gas to solvent ([3]; Octan-1-ol, 25 C) [log10 K]	log K of transfer, water to solvent ([2]; 1,2-Dichloroethane, 25 C) [log10 K]	log K of transfer, water to solvent ([2]; Benzene, 25 C) [log10 K]	log K of transfer, water to solvent ([2]; Chlorobenzene, 25 C) [log10 K]	log K of transfer, water to solvent ([2]; Hexane, 25 C) [log10 K]	log K of transfer, water to solvent ([2]; Toluene, 25 C) [log10 K]	log K of transfer, gas to solvent ([3]; 1,2-Dichloroethane, 25 C) [log10 K]	log K of transfer, gas to solvent ([3]; Benzene, 25 C) [log10 K]	log K of transfer, gas to solvent ([3]; Chlorobenzene, 25 C) [log10 K]	other results
Oc1ccccc1	1.5	-0.3	-1.08	4.55	3.76	4.85	0.32	-0.813	5.17	4.03	0.83	5.68	0.61	0.37	0.25	-1.18	0.23	5.46	5.22	5.1	log K of transfer, water to solvent ([2]; Dichloromethane, 25 C): 0.64 log10 K; log K of transfer, water to solvent ([2]; Perfluoroalkane, 25 C): -2.62 log10 K; log K of transfer, gas to solvent ([3]; Dichloromethane, 25 C): 5.49 log10 K; log K of transfer, gas to solvent ([3]; Hexane, 25 C): 3.67 log10 K; log K of transfer, gas to solvent ([3]; Perfluoroalkane, 25 C): 2.23 log10 K; log K of transfer, gas to solvent ([3]; Toluene, 25 C): 5.08 log10 K
